One assay deals with VEGFR2 (Homo sapiens (Human), UniProt P35968). In words: VEGFR2 in vitro kinase inhibitory activity assay (TRF, Flt3 substrate). It counts as biochemical.
Assay [1] concerns parental wild-type Ba/F3 cells. Briefly: Ba/F3 (WT) cell proliferation assay (Alamar Blue). Format: cell-based. To be noted: Mus musculus; for IC50: 72 hours, Alamar Blue, read-out: BaF3 WT prolif. (In general: The colour change of resazurin is a common sign of viable cells or microbes.)
Assay [2] relates to LP-1 cell line (FGF-1/Heparin induced pERK). Briefly: Cell-based pERK ELISA, LP-1 cells. Particulars: Homo sapiens; for IC50: LP-1, read-out: LP-1 pERK ELISA (μM). For orientation: ELISA stands for enzyme-linked immunosorbent assay.
The test system of a further assay is Ba/F3-TEL-FGFR3 cells. Briefly: Ba/F3-TEL-FGFR3 cell proliferation assay (Alamar Blue). It counts as cell-based. To be noted: 72 hours, Alamar Blue; read-out: BaF3-TEL-FGFR3 prolif.
A further assay deals with FGFR3 (Homo sapiens (Human), UniProt P22607). In words: FGFR3 in vitro kinase inhibitory activity assay (TRF). Particulars: 3 h, read-out: FGFR3 % I.
Sequence of FGFR3 (P22607 23-806): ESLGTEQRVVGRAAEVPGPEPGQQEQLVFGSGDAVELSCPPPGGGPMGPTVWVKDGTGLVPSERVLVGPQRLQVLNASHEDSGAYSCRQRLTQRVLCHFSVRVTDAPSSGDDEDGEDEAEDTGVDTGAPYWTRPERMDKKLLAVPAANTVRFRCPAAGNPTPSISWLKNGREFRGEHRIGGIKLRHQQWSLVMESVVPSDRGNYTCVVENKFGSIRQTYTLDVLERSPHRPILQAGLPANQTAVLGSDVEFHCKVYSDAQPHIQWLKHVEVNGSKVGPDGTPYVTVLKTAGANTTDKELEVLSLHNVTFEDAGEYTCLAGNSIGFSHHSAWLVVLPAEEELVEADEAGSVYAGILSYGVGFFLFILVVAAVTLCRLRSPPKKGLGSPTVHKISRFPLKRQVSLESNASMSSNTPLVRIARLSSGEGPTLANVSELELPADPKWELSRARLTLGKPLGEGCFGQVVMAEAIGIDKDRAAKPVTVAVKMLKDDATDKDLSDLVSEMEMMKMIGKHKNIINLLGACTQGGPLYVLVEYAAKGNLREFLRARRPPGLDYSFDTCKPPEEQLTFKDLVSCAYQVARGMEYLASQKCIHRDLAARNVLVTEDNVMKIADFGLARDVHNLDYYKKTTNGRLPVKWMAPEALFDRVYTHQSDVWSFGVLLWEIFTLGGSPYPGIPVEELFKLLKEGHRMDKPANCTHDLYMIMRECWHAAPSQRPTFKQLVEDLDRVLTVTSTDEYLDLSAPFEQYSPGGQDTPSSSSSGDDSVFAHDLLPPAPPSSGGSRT
The mark [3] stands for this setting: BaF3, read-out: BaF3 WT prolif, % inhibition.
[4] abbreviates: BaF3, at 10 μM, read-out: BaF3 WT prolif, % inhibition.

Counter-ions that a name gives are not always drawn. Like-named read-outs stand apart in the source and are kept apart here.

Sequence of VEGFR2 (P35968 20-1356): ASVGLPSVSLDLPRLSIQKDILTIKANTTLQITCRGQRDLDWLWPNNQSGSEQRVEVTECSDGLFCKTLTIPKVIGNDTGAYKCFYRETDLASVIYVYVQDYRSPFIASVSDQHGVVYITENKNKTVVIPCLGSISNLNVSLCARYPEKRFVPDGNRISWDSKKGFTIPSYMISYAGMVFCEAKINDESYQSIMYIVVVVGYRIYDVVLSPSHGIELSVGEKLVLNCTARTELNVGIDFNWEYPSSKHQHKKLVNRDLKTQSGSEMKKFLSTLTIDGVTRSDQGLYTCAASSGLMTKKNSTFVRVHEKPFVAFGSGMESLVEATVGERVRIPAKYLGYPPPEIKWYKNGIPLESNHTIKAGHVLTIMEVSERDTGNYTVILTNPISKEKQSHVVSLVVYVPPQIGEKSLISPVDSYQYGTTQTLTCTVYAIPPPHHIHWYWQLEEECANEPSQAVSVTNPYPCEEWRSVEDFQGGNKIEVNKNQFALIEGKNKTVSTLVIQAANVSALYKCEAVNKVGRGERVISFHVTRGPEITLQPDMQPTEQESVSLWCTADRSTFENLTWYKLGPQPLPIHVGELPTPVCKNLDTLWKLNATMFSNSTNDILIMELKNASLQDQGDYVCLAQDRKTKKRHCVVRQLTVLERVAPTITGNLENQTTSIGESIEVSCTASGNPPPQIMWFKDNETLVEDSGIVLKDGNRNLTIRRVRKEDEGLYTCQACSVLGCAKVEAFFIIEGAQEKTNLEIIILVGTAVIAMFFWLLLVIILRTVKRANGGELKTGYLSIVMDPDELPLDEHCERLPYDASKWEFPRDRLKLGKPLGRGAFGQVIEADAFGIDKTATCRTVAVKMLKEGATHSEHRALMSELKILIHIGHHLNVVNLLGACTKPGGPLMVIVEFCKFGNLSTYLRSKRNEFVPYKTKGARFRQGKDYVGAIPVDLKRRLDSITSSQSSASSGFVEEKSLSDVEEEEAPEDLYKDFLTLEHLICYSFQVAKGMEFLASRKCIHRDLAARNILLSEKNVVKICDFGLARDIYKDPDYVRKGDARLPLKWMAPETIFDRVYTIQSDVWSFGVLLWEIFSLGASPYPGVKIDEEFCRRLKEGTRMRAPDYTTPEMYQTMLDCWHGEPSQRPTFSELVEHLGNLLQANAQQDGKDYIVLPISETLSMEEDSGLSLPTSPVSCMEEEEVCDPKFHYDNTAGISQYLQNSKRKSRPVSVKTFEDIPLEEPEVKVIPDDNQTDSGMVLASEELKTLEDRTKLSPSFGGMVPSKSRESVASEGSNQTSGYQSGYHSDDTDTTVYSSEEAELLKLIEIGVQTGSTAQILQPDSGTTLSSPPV

For `Nc1nc(-c2ccn3c(-c4cc(NC(=O)NCC(F)(F)F)ccc4F)cnc3c2)ncc1F` [Compound 311], on VEGFR2 (1 h, read-out: VEGFR2 % I), the inhibition at 0.978 µM came out at 20%. Besides, in assay [1] (setting [3]), the inhibition at 3 µM turned out to be 2% and the inhibition at 10 µM is 32%.

Regarding `Nc1nc(-c2ccn3c(-c4cccc(NC(=O)NCC(F)(F)F)c4)cnc3c2)cc(C(F)(F)F)n1` [Example 245], on VEGFR2 (1 h, read-out: VEGFR2 % I), the inhibition at 0.3 µM was determined as 43%. Besides, in assay [1] (BaF3), the IC50 was 2.2 µM.

For the molecule `CNc1nc(-c2ccn3c(-c4cccc(NC(=O)NCC(F)(F)F)c4)cnc3c2)ncc1F` [Example 162], the inhibition at 1 µM on VEGFR2 (1 h, read-out: VEGFR2 % I) amounted to 59%. Further, the inhibition at 3 µM in assay [1] (setting [3]) came out at 37%. The IC50 in assay [2] is 0.091 µM.

On to `CC(C)N1CC(n2cc(-c3ccn4c(-c5cccc(NC(=O)NCC(F)(F)F)c5)cnc4c3)cn2)C1` [Example 32, 1-(3-{7-[1-(1-Isopropylazetidin-3-yl)-1H-pyrazol-4-yl]imidazo[1,2-a]pyridin-3-yl}phenyl)-3-(2,2,2-trifluoroethyl)-urea], for which the IC50 with Ba/F3-TEL-FGFR3 cells worked out at 0.012 µM; in assay [1] (BaF3), 0.67 µM; in assay [2] it was 0.014 µM.

Consider `Nc1ncc(C(F)(F)F)c(-c2ccn3c(-c4cccc(NC(=O)NCC(F)(F)F)c4)cnc3c2)n1` [Example 179], for which the IC50 against VEGFR2 is over 10 µM. In addition, the inhibition at 1 µM in assay [1] (setting [3]) is 22%.

`O=C(NCC(F)(F)F)Nc1cccc(-c2cnc3cc(-c4nc(NC5CCC5)ncc4C(F)(F)F)ccn23)c1` [Example 191]: the IC50 on VEGFR2 was over 30 µM. In addition, the inhibition at 1 µM in assay [1] (setting [3]) came out at 18%.

Consider `CCCCOC(=O)Nc1nc(-c2ccn3c(-c4cccc(NC(=O)NCC(F)(F)F)c4)cnc3c2)ncc1F` [Compound 314], for which the inhibition at 3 µM at VEGFR2 (1 h, read-out: VEGFR2 % I) came to 62%. Besides, in assay [1] (setting [3]), the inhibition at 10 µM stood at 21%.

With `CC(C)(C)OC(=O)NC1CN(c2ccnc(-c3ccn4c(-c5cccc(NC(=O)NCC(F)(F)F)c5)cnc4c3)n2)C1` [Example 193], the inhibition at 0.89 µM at VEGFR2 (1 h, at 0.89 μM, read-out: VEGFR2 % I) was 36%. For the same molecule, at VEGFR2 (1 h, at 3.11 μM, read-out: VEGFR2 % I), the inhibition at 3.11 µM turned out to be 48%. Also, the IC50 in assay [1] (BaF3) stood at 1.5 µM.

Regarding `CCNC(=O)Nc1cccc(-c2cnc3cc(-c4ccnc(C(F)(F)F)n4)ccn23)c1` [Example 239], at VEGFR2 (1 h, read-out: VEGFR2 % I), the inhibition at 1 µM is 49%. Also, the inhibition at 3 µM in assay [1] (setting [3]) is 26%.

As to `O=C(NCC(F)(F)F)Nc1cccc(-c2cnc3cc(-c4ncc(C(F)(F)F)c(NC5CCC5)n4)ccn23)c1` [Example 192], the IC50 against VEGFR2 is over 3 µM. Moreover, the inhibition at 3 µM in assay [1] (setting [3]) amounted to 49%.

As to `O=C(NCC(F)(F)F)Nc1cc(OC2CCCC2)cc(-c2cnc3cc(-c4ncccn4)ccn23)c1` [Compound 284], the inhibition at 10 µM at VEGFR2 (1 h, at 10 μM, read-out: VEGFR2 % I) stood at 62%. Also, the inhibition at 3 µM in assay [1] (setting [3]) is 14%. In addition, the IC50 in assay [1] (BaF3) was 3.4 µM.

Turning to `Cc1nc(-c2ccn3c(-c4cccc(NC(=O)NCC(F)(F)F)c4)cnc3c2)cc(N(C)C)n1` [Example 198], the IC50 in the assay on Ba/F3-TEL-FGFR3 cells was 0.27 µM. The inhibition at 3 µM in assay [1] (setting [3]) amounted to 39%.

With `CC(C)(C(N)=O)n1cc(-c2ccn3c(-c4cccc(NC(=O)NCC(F)(F)F)c4)cnc3c2)cn1` [Example 72, 2-[4-(3-{3-[3-(2,2,2-Trifluoro-ethyl)-ureido]-phenyl}-imidazo[1,2-a]pyridin-7-yl)-pyrazol-1-yl]-isobutyramide], the IC50 in the assay with Ba/F3-TEL-FGFR3 cells was found to be 0.76 µM; in assay [2] it was 0.3 µM. Besides, in assay [1] (setting [4]), the inhibition at 10 µM was determined as 32%.

Take `CCN(CC)CCNC(=O)C(C)(C)n1cc(-c2ccn3c(-c4cccc(NC(=O)NCC(F)(F)F)c4)cnc3c2)cn1` [Example 68, N-(2-Diethylamino-ethyl)-2-[4-(3 {3-[3-(2,2,2-trifluoro-ethyl)-ureido]-phenyl}-imidazo[1,2-a]pyridin-7-yl)-pyrazol-1-yl]-isobutyramide]: the IC50 with Ba/F3-TEL-FGFR3 cells came out at 1.5 µM; in assay [2], 0.53 µM. The inhibition at 10 µM in assay [1] (setting [4]) was found to be 36%.

In the case of `O=C(NCC(F)(F)F)Nc1cccc(-c2cnc3cc(-c4ccc(C(=O)N5CCOCC5)cn4)ccn23)c1` [Example 223], on VEGFR2 (1 h, read-out: VEGFR2 % I), the inhibition at 0.3 µM was 39%. Besides, in assay [1] (setting [3]), the inhibition at 3 µM was 45%.

In the case of `O=C(NCC(F)(F)F)Nc1cccc(-c2cnc3cc(-c4cccnn4)ccn23)c1` [Example 9, 1-[3-(7-Pyridazin-3-ylimidazo[1,2-a]pyridin-3-yl)phenyl]-3-(2,2,2-trifluoroethyl)urea hydrochloride], the IC50 with Ba/F3-TEL-FGFR3 cells was 0.797 µM; in assay [1] (BaF3), 6.4 µM; in assay [2] it was 0.14 µM.

With `CC(=O)N1CC(n2cc(-c3ccn4c(-c5cccc(NC(=O)NCC(F)(F)F)c5)cnc4c3)cn2)C1` [Example 212], the IC50 against VEGFR2 is over 0.3 µM. The inhibition at 3 µM in assay [1] (setting [3]) was found to be 10%.

Turning to `CC(C)(C)OC(=O)N1CCC(n2cc(-c3ccn4c(-c5cncc(NC(=O)NCC(F)(F)F)c5)cnc4c3)cn2)CC1` [Example 55, 4-[4-(3-{5-[3-(2,2,2-Trifluoro-ethyl)-ureido]-pyridin-3-yl}-imidazo[1,2-a]pyridin-7-yl)-pyrazol-1-yl]-piperidine-1-carboxylic acid tert-butyl ester], the inhibition at 0.0003 µM on FGFR3 was 38%.

Take `Nc1cc(-c2ccn3c(-c4cccc(NC(=O)NCC(F)(F)F)c4)cnc3c2)nc(C(F)(F)F)n1` [Example 210]: the inhibition at 0.1 µM at VEGFR2 (1 h, at 0.1 μM, read-out: VEGFR2 % I) came to 42%. Moreover, in assay [1] (setting [3]), the inhibition at 3 µM was 13%.

Turning to `Cc1cc(NC(=O)NCC(F)(F)F)cc(-c2cnc3cc(-c4ncc(F)c(N)n4)ccn23)c1` [Compound 291], on VEGFR2 (1 h, at 0.98 μM, read-out: VEGFR2 % I), the inhibition at 0.98 µM was determined as 57%. For the same molecule, the inhibition at 1 µM in assay [1] (setting [3]) worked out at 24%.

For `Cc1cc(NC(=O)NCC(F)(F)F)cc(-c2cnc3cc(-c4ccnc(C(F)(F)F)n4)ccn23)c1` [Compound 306], at VEGFR2 (1 h, read-out: VEGFR2 % I), the inhibition at 1 µM is 60%. Besides, in assay [1] (setting [3]), the inhibition at 10 µM stood at 0%.

`CC(C)c1nccc(-c2ccn3c(-c4cccc(NC(=O)NCC(F)(F)F)c4)cnc3c2)n1` [Example 233]: the inhibition at 3.1 µM on VEGFR2 (1 h, at 3.1 μM, read-out: VEGFR2 % I) was 62%. Also, the IC50 in assay [1] (BaF3) was found to be 0.0149 µM.

As to `CCN1CCC(n2cc(-c3ccn4c(-c5cccc(NC(=O)NCC(F)(F)F)c5)cnc4c3)cn2)C1` (centres unmarked) [Example 44, 1-(3-{7-[1-(1-Ethyl-pyrrolidin-3-yl)-1H-pyrazol-4-yl)-imidazo[1,2-a]pyridin-3-yl}-phenyl)-3-(2,2,2-trifluoro-ethyl)-urea], the figures for the IC50 (in the assay on Ba/F3-TEL-FGFR3 cells; in assay [1] (BaF3); in assay [2]) were 0.045 µM, 0.9 µM and 0.022 µM, respectively.

`CCNc1nc(-c2ccn3c(-c4cccc(NC(=O)NCC(F)(F)F)c4)cnc3c2)ncc1F` [Example 177] had an IC50 against VEGFR2 of over 1 µM. The inhibition at 10 µM in assay [1] (setting [3]) was 16%; in assay [2] (LP-1, read-out: LP-1 pERK ELISA, % inhibition) it was 47%.

In the case of `Cc1cc(C)nc(-c2ccn3c(-c4cccc(NC(=O)NCC(F)(F)F)c4)cnc3c2)n1` [Example 160], on VEGFR2 (1 h, read-out: VEGFR2 % I), the inhibition at 1 µM came to 49.5%.

As for `CNC(=O)C(C)(C)n1cc(-c2ccn3c(-c4cccc(NC(=O)NCC(F)(F)F)c4)cnc3c2)cn1` [Example 69, N-Methyl-2-[4-(3-{3-[3-(2,2,2-trifluoro-ethyl)-ureido]-phenyl}-imidazo[1,2-a]pyridin-7-yl)-pyrazol-1-yl]-isobutyramide], the results for the IC50 (in the assay with Ba/F3-TEL-FGFR3 cells; in assay [1] (BaF3); in assay [2]) were 0.26 µM, 4.6 µM and 0.096 µM, respectively.

Take `Cc1nc(-c2ccn3c(-c4cccc(NC(=O)NCC(F)(F)F)c4)cnc3c2)cc(C(F)(F)F)n1` [Example 238]: the inhibition at 0.31 µM on VEGFR2 (1 h, at 0.31 μM, read-out: VEGFR2 % I) was 40%. Also, the inhibition at 10 µM in assay [1] (setting [3]) was determined as 41%.

For the molecule `Nc1cc(Cl)cnc1-c1ccn2c(-c3cccc(NC(=O)NCC(F)(F)F)c3)cnc2c1` [Example 146, 1-{3-[7-(3-Amino-5-chloro-pyridin-2-yl)-imidazo[1,2-a]pyridin-3-yl]-phenyl}-3-(2,2,2-trifluoro-ethyl)-urea], at VEGFR2 (1 h, read-out: VEGFR2 % I), the inhibition at 1 µM was found to be 51%. In addition, in assay [1] (setting [3]), the inhibition at 10 µM was found to be 1.2%.

In the case of `COCCOc1cc(NC(=O)NCC(F)(F)F)cc(-c2cnc3cc(-c4ncc(F)c(N)n4)ccn23)c1` [Compound 285], the inhibition at 3 µM on VEGFR2 (1 h, read-out: VEGFR2 % I) is 51%. Besides, in assay [1] (setting [3]), the inhibition at 1 µM was 12% and the inhibition at 10 µM was determined as 10%.

For `Cc1ccc(NC(=O)NCC(F)(F)F)cc1-c1cnc2cc(C#Cc3cncn3C)ccn12` [Compound 326], the inhibition at 0.978 µM on VEGFR2 (1 h, read-out: VEGFR2 % I) came out at 45%. Moreover, the inhibition at 10 µM in assay [1] (setting [3]) was found to be 18%.

As for `CCN(CC)CCc1nnc(-c2ccn3c(-c4cccc(NC(=O)NCC(F)(F)F)c4)cnc3c2)s1` [Example 246], the inhibition at 0.3 µM at VEGFR2 (1 h, read-out: VEGFR2 % I) was found to be 45%. Besides, in assay [1] (BaF3), the IC50 is 1 µM.

Take `CN1CCCC(n2cc(-c3ccn4c(-c5cccc(NC(=O)NCC(F)(F)F)c5)cnc4c3)cn2)C1` (centres unmarked) [Example 38, 1-(3-{7-[1-(1-Methylpiperidin-3-yl)-1H-pyrazol-4-yl]imidazo[1,2-a]pyridin-3-yl]phenyl)-3-(2,2,2-trifluoroethyl)urea hydrochloride]: the figures for the IC50 (with Ba/F3-TEL-FGFR3 cells; in assay [1] (BaF3); in assay [2]) were 0.022 µM, 0.44 µM and 0.0086 µM, respectively.

On to `O=C(NCC(F)(F)F)Nc1cccc(-c2cnc3cc(-c4cnn(C5CCNC5)c4)ccn23)c1` (centres unmarked) [Example 45, 1-{3-[7-(1-Pyrrolidin-3-yl-1H-pyrazol-4-yl)-imidazo[1,2-a]pyridin-3-yl]-phenyl}-3-(2,2,2-trifluoro-ethyl)-urea], for which the inhibition at 10 µM in assay [1] (setting [3]) came to 0%. In addition, the IC50 in assay [2] was found to be 0.35 µM.
